The assay deals with panel of experts. Put plainly: Organoleptic test of cooling action in confectioner's fondant, rated by a panel of experts. The class given is in vivo. Conditions: scale from 1 (no cooling action) to 9 (extremely strong cooling action), 0.05 wt. % relative to the complete preparation. The protocol:
The compounds according to Examples 1 to 12 were tested for their organoleptic properties, in particular their cooling action. To this end, they were dissolved, in each case in a specific final concentration, in a mass prepared from sucrose (saccharose) and water (confectioner's fondant, supplier Nordzucker AG, Nordstemmen) and evaluated by a panel of experts. Sensory impressions were rated and the cooling action was assessed on a scale from 1 (no cooling action) to 9 (extremely strong cooling action). The results were convincing in every case.

The compound `CNC(=O)C(=O)O[C@@H]1C[C@H](C)CC[C@H]1C(C)C` [Example 2, L-menthyl N-methyl oxamate] came in with a cooling action of 6.
